Experimental data from patent US9708314B2, “Heterocyclic amide compound” (NISSAN CHEMICAL INDUSTRIES, LTD., priority 2013, dated 2017).

How the values were obtained:
Type in all cases: in vivo
[1] = system: Monochoria vaginalis; test: Test Example 1: herbicidal activity, application before weed generation in submerged conditions; details: Seventeenth Table; for C: Monochoria vaginalis (herbicidal effect grade): Application herbicide amount 320 g/ha
Outline: (§1)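 Pre-emergence application to water surface of submerged pots (4 cm depth, alluvial soil) on sowing day, with 2.5-leaf rice transplanted; emulsion diluted to g/ha rates. Grown in greenhouse at 25–30 °C; 0–5 herbicidal/crop-effect score after three weeks.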

[2] = system: Scirpus juncoides; test: as above; details: Seventeenth Table; for B: Scirpus juncoides (herbicidal effect grade): Application herbicide amount 320 g/ha
Outline: as §1

[3] = system: transplanted Oryza sativa; test: Test Example 1: effect on crop, application before weed generation in submerged conditions; details: Seventeenth Table; for a: transplanted Oryza sativa (effect on crop grade): Application herbicide amount 320 g/ha
Outline: as §1

[4] = system: Cyperus difformis; test: Test Example 3: herbicidal effect by application to foliage (Wagner pot, water depth 0.1-0.5 cm); details: Nineteenth Table; application to foliage; application herbicide amount 320 g/ha
Outline: (§2)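 Grading uses six bands of herbicidal ratio, from 0 (≤5%, almost no effect) to 5 (≥90%, almost completely withered). Treatment was a stem-and-leaf spray of diluted emulsion at a fixed g/ha on 14-day-old plants; evaluation after three weeks.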

[5] = system: Echinochloa crus-galli var. crus-galli; test: as above; details: Nineteenth Table, application to foliage
Outline: as §2

[6] = system: Leptochloa chinensis; test: as above; details: Nineteenth Table, application to foliage
Outline: as §2

[7] = system: Echinochloa oryzacola Vasing.; test: Test Example 1: herbicidal activity, application before weed generation in submerged conditions; details: Seventeenth Table; for A: Echinochloa oryzicola Vasing. (herbicidal effect grade): Application herbicide amount 320 g/ha
Outline: as §1

[8] = system: directly sowed Oryza sativa; test: Test Example 3: effect on crop by application to foliage (Wagner pot, water depth 0.1-0.5 cm); details: Nineteenth Table, application to foliage
Outline: as §2

[9] = application herbicide amount 320 g/ha
[10] = application herbicide amount 260 g/ha

Row | SMILES | C: Monochoria vaginalis (herbicidal effect grade) [1] | B: Scirpus juncoides (herbicidal effect grade) [2] | a: transplanted Oryza sativa (effect on crop grade) [3] | E (herbicidal effect grade) [4] | H (herbicidal effect grade) [5, 9] | D (herbicidal effect grade) [6, 9] | A: Echinochloa oryzicola Vasing. (herbicidal effect grade) [7] | b (effect on crop grade) [8, 9] | A (Echinochloa oryzicola Vasing.) herbicidal ratio grade [7, 10] | B (Scirpus juncoides) herbicidal ratio grade [2, 10] | a (transplanted Oryza sativa) effect on crop grade [3, 10] | H (herbicidal effect grade) [5, 10] | D (herbicidal effect grade) [6, 10] | b (effect on crop grade) [8, 10] | A (Echinochloa oryzicola Vasing.) herbicidal ratio grade [7, 9] | C (Monochoria vaginalis) herbicidal ratio grade [1, 9] | B (Scirpus juncoides) herbicidal ratio grade [2, 9] | a (transplanted Oryza sativa) effect on crop grade [3, 9]
1 | Cc1nnc(NC(=O)c2ccc(C(F)(F)F)n3c(SC4CCCC4)nnc23)o1 [1-154] | 2 (Herbicidal ratio of 20% or more and less than 40%) | 3 (Herbicidal ratio of 40% or more and less than 70%) | 0 (Herbicidal ratio of 5% or less (almost no effect)) | 4 (Herbicidal ratio of 70% or more and less than 90%) | 3 (Herbicidal ratio of 40% or more and less than 70%) | 2 (Herbicidal ratio of 20% or more and less than 40%) |  |  |  |  |  |  |  |  |  |  |  | 
2 | O=C(Nc1nnco1)c1ccc(C(F)(F)F)n2c(SC3CCCC3)nnc12 [1-155] | 3 (Herbicidal ratio of 40% or more and less than 70%) | 4 (Herbicidal ratio of 70% or more and less than 90%) | 0 (Herbicidal ratio of 5% or less (almost no effect)) | 5 (Herbicidal ratio of 90% or more (almost completely withered)) | 1 (Herbicidal ratio of 5% or more and less than 20%) | 2 (Herbicidal ratio of 20% or more and less than 40%) |  |  |  |  |  |  |  |  |  |  |  | 
3 | Cc1nnc(NC(=O)c2ccc(C(F)(F)F)n3c(SCc4ccc(Cl)nc4)nnc23)o1 [1-156] | 0 (Herbicidal ratio of 5% or less (almost no effect)) | 2 (Herbicidal ratio of 20% or more and less than 40%) | 0 (Herbicidal ratio of 5% or less (almost no effect)) | 2 (Herbicidal ratio of 20% or more and less than 40%) | 3 (Herbicidal ratio of 40% or more and less than 70%) | 2 (Herbicidal ratio of 20% or more and less than 40%) |  |  |  |  |  |  |  |  |  |  |  | 
4 | O=C(Nc1nnco1)c1ccc(C(F)(F)F)n2c(SCc3ccc(Cl)nc3)nnc12 [1-157] | 2 (Herbicidal ratio of 20% or more and less than 40%) | 3 (Herbicidal ratio of 40% or more and less than 70%) | 2 (Herbicidal ratio of 20% or more and less than 40%) | 4 (Herbicidal ratio of 70% or more and less than 90%) | 4 (Herbicidal ratio of 70% or more and less than 90%) | 3 (Herbicidal ratio of 40% or more and less than 70%) |  |  |  |  |  |  |  |  |  |  |  | 
5 | COc1ccc(N(C)c2nnc3c(C(=O)Nc4nnco4)ccc(C(F)(F)F)n23)cc1 [1-171] | 4 (Herbicidal ratio of 70% or more and less than 90%) | 4 (Herbicidal ratio of 70% or more and less than 90%) | 1 (Herbicidal ratio of 5% or more and less than 20%) |  | 4 (Herbicidal ratio of 70% or more and less than 90%) | 4 (Herbicidal ratio of 70% or more and less than 90%) | 5 (Herbicidal ratio of 90% or more (almost completely withered)) | 0 (Herbicidal ratio of 5% or less (almost no effect)) |  |  |  |  |  |  |  |  |  | 
6 | COc1cc(OC)cc(-c2nnc3c(C(=O)Nc4nnnn4C)ccc(C(F)(F)F)n23)c1 [2-063] | 5 (Herbicidal ratio of 90% or more (almost completely withered)) |  | 4 (Herbicidal ratio of 70% or more and less than 90%) | 5 (Herbicidal ratio of 90% or more (almost completely withered)) | 5 (Herbicidal ratio of 90% or more (almost completely withered)) | 5 (Herbicidal ratio of 90% or more (almost completely withered)) | 5 (Herbicidal ratio of 90% or more (almost completely withered)) | 3 (Herbicidal ratio of 40% or more and less than 70%) |  |  |  |  |  |  |  |  |  | 
7 | Cn1nnnc1NC(=O)c1ccc(C(F)(F)F)n2c(-c3cc(Cl)cc(Cl)c3)nnc12 [2-064] | 2 (Herbicidal ratio of 20% or more and less than 40%) |  | 3 (Herbicidal ratio of 40% or more and less than 70%) | 5 (Herbicidal ratio of 90% or more (almost completely withered)) | 1 (Herbicidal ratio of 5% or more and less than 20%) | 4 (Herbicidal ratio of 70% or more and less than 90%) | 5 (Herbicidal ratio of 90% or more (almost completely withered)) | 0 (Herbicidal ratio of 5% or less (almost no effect)) |  |  |  |  |  |  |  |  |  | 
8 | CCCn1nnnc1NC(=O)c1ccc(C(F)(F)F)n2c(C(C)C)nnc12 [2-090] | 5 (Herbicidal ratio of 90% or more (almost completely withered)) | 5 (Herbicidal ratio of 90% or more (almost completely withered)) | 4 (Herbicidal ratio of 70% or more and less than 90%) | 5 (Herbicidal ratio of 90% or more (almost completely withered)) | 5 (Herbicidal ratio of 90% or more (almost completely withered)) | 4 (Herbicidal ratio of 70% or more and less than 90%) | 5 (Herbicidal ratio of 90% or more (almost completely withered)) |  |  |  |  |  |  |  |  |  |  | 
9 | C=CCn1nnnc1NC(=O)c1ccc(C(F)(F)F)n2c(C(C)C)nnc12 [2-091] | 5 (Herbicidal ratio of 90% or more (almost completely withered)) | 5 (Herbicidal ratio of 90% or more (almost completely withered)) | 0 (Herbicidal ratio of 5% or less (almost no effect)) | 4 (Herbicidal ratio of 70% or more and less than 90%) | 5 (Herbicidal ratio of 90% or more (almost completely withered)) | 3 (Herbicidal ratio of 40% or more and less than 70%) | 5 (Herbicidal ratio of 90% or more (almost completely withered)) |  |  |  |  |  |  |  |  |  |  | 
10 | CC(C)c1nnc2c(C(=O)Nc3nnnn3Cc3ccc(Cl)cc3)ccc(C(F)(F)F)n12 [2-093] | 4 (Herbicidal ratio of 70% or more and less than 90%) | 5 (Herbicidal ratio of 90% or more (almost completely withered)) | 2 (Herbicidal ratio of 20% or more and less than 40%) | 5 (Herbicidal ratio of 90% or more (almost completely withered)) | 1 (Herbicidal ratio of 5% or more and less than 20%) | 2 (Herbicidal ratio of 20% or more and less than 40%) | 5 (Herbicidal ratio of 90% or more (almost completely withered)) |  |  |  |  |  |  |  |  |  |  | 
11 | C#CCN(C)c1nnc2c(C(=O)Nc3nnnn3C)ccc(C(F)(F)F)n12 [2-094] | 5 (Herbicidal ratio of 90% or more (almost completely withered)) | 5 (Herbicidal ratio of 90% or more (almost completely withered)) | 4 (Herbicidal ratio of 70% or more and less than 90%) | 5 (Herbicidal ratio of 90% or more (almost completely withered)) | 5 (Herbicidal ratio of 90% or more (almost completely withered)) | 5 (Herbicidal ratio of 90% or more (almost completely withered)) | 5 (Herbicidal ratio of 90% or more (almost completely withered)) |  |  |  |  |  |  |  |  |  |  | 
12 | CN(CCC#N)c1nnc2c(C(=O)Nc3nnnn3C)ccc(C(F)(F)F)n12 [2-095] | 5 (Herbicidal ratio of 90% or more (almost completely withered)) | 5 (Herbicidal ratio of 90% or more (almost completely withered)) | 5 (Herbicidal ratio of 90% or more (almost completely withered)) | 5 (Herbicidal ratio of 90% or more (almost completely withered)) | 5 (Herbicidal ratio of 90% or more (almost completely withered)) | 5 (Herbicidal ratio of 90% or more (almost completely withered)) | 5 (Herbicidal ratio of 90% or more (almost completely withered)) |  |  |  |  |  |  |  |  |  |  | 
13 | Cn1nnnc1NC(=O)c1ccc(C(F)(F)F)n2c(C=O)nnc12 [2-109] |  |  |  |  |  |  |  |  | 2 (Herbicidal ratio of 20% or more and less than 40%) | 3 (Herbicidal ratio of 40% or more and less than 70%) | 0 (Herbicidal ratio of 5% or less (almost no effect)) | 3 (Herbicidal ratio of 40% or more and less than 70%) | 5 (Herbicidal ratio of 90% or more (almost completely withered)) | 2 (Herbicidal ratio of 20% or more and less than 40%) |  |  |  | 
14 | Cc1nnc(NC(=O)c2ccc(C(F)(F)F)n3nc(C(C)C)nc23)o1 [7-001] |  |  |  |  | 1 (Herbicidal ratio of 5% or more and less than 20%) | 2 (Herbicidal ratio of 20% or more and less than 40%) |  |  |  |  |  |  |  |  | 0 (Herbicidal ratio of 5% or less (almost no effect)) | 4 (Herbicidal ratio of 70% or more and less than 90%) | 2 (Herbicidal ratio of 20% or more and less than 40%) | 0 (Herbicidal ratio of 5% or less (almost no effect))
